From patent US20030181727A1, “Cyanine dyes” (Kabushiki Kaisha Hayashibara Seibutsu Kagaku Kenky, priority 1999, published 2003)

Experiments:
[1] = Light-resistance test: residual percentage of dye in thin layer on glass after 25 min exposure to 500 W xenon lamp; type: physicochemical; settings: 7 cm, from transmittance at absorption maximum; for Residual percentage of monomethine cyanine dye, With no light-resistant improver: control thin layer without improver; for Residual percentage of monomethine cyanine dye, With light-resistant improver: thin layer with formazan nickel complex of Chemical Formula 49 (15 mg dye + 2 mg improver in 3 ml TFP)
Protocol: Fifteen milligrams of either of the monomethine cyanine dyes in Table 2 was added to three milliliters of TFP, and as a light-resistant improver two milligrams of the formazan nickel complex represented by Chemical Formula 49 disclosed in Japanese Patent Application No. 163,036/99, titled “Formazan metal complexes” applied for by the same applicant as the present invention, and the contents were dissolved in the solvent with a 5-minute ultrasonic energization at ambient temperature. Thereafter, in a usual manner, a prescribed volume of the resulting solution was dropped on either surface of a polished glass substrate, 5 cm×5 cm, while the glass substrate was rotated at a rotation rate of 1,000 rpm for one minute to uniformly coat the solution thereupon, and sequentially blown with hot air and cold air to dry the coated solution. [drawing 10]
The resulting glass substrates coated with the monomethine cyanine dyes were measured for transmittance (T0) at the wavelengths of their absorption maxima, and then fixed to a position 7 cm apart from a 500 W xenon lamp and exposed with the light for 25 min while cold air was blowing to the substrates. Immediately after that, the resulting substrates were remeasured for transmittance (T) at the wavelengths of the absorption maxima of the monomethine cyanine dyes, and the transmittances of T and T0 for each monomethine cyanine dye were substituted for the Equation 1 to calculate the residual percentage (%) of each monomethine cyanine dye. In parallel, control systems with no light-resistant improver for each monomethine cyanine dye were provided and treated similarly as above. [formula]
As shown in the results in Table 2, in the systems with no light-resistant improver, up to 74% of the monomethine cyanine dye had changed with only a 25-min exposure of light to become incapable of exerting its inherent optical properties. However, in the systems with the formazan metal complex represented by Chemical Formula 49, all of the monomethine cyanine dyes still remained intact up to a level of over 93% without changing even after the exposure of light.

[2] = Visible absorption spectra of monomethine cyanine dyes in methanol solution and as thin layer on glass substrates; type: physicochemical; settings: for Wavelength of absorption maximum, Solution: dissolved in methanol; for Wavelength of absorption maximum, Thin layer: thin layer formed on glass substrate
Protocol: The monomethine cyanine dyes in Table 1 were measured for their visible absorption spectra when dissolved in methanol and formed on glass substrates, respectively. The results are tabulated in Table 1, and the visible absorption spectrum of the monomethine cyanine dye represented by Chemical Formula 17 when in a liquid form and in a thin-layer form are shown in FIG. 1.
As evident from the results in Table 1 and FIG. 1, the monomethine cyanine dyes tested had absorption maxima in relatively short wavelength visible regions, particularly, at wavelengths of 450 nm or less both in the forms of solution and thin layer. Most of these monomethine cyanine dyes had absorption maxima at wavelengths of 350-400 nm when in solution and thin layer forms, and the ends of their absorption maxima in their longer wavelength regions extended up to about 450 nm when in a thin layer form. The fact evidences that the light absorbents, comprising the monomethine cyanine dyes of the present invention, have sensitivity to a relatively short-wavelength visible light, and most of the light absorbents substantially absorb laser beams with wavelengths of 450 nm or less in their longer wavelength regions with their absorption maxima.

SMILES | Residual percentage of monomethine cyanine dye, With no light-resistant improver [1] [%] | Residual percentage of monomethine cyanine dye, With light-resistant improver [1] [%] | Wavelength of absorption maximum, Solution [2] [nm] | Wavelength of absorption maximum, Thin layer [2] [nm]
CC[n+]1c(C=C2Oc3ccc(-c4ccccc4)cc3N2C)oc2ccccc21.[I-] [Chemical Formula 6] | 98.7 | 100.0 | 380 | 371
CC[n+]1c(C)csc1C=C1OC=C(C)N1C.[I-] [Chemical Formula 17] | 80.6 | 100.0 | 379 | 375
CN1C(=CC2=[N+](C)c3ccccc3C2(C)C)Oc2ccccc21.[I-] [Chemical Formula 36] | 26.0 | 93.2 | 396 | 440
